Here are results for 31 molecules from patent US7495088B1, “Modified nucleotide compounds” (Enzo Life Sciences, Inc., priority 1989, dated 2009).

Data set [1] has as its target T1, Spleen phosphodiesterase (5'->3' exonuclease) (Bos taurus) (UniProt Q2KJJ8).
T1 sequence: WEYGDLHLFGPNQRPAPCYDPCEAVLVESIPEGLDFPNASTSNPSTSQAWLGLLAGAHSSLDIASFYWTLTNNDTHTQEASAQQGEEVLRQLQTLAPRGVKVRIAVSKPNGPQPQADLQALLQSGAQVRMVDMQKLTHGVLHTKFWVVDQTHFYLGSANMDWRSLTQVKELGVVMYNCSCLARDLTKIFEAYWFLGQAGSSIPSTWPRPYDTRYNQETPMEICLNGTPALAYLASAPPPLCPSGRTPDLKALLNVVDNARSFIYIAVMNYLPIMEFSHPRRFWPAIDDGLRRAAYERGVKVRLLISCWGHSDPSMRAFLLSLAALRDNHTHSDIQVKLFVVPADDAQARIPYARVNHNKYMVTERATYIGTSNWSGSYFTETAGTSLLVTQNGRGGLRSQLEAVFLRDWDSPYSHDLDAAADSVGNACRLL
Description: cleavage_in_vitro.

The subject of data set [2] is Snake venom phosphodiesterase. The conditions noted are these: pH 9.
The next data set addresses E. coli RNase H (Escherichia coli, UniProt P0A7Y4). Particulars: 2 units RNase H, 60 minutes 37° C.; for ability to form RNase H substrate, 14-mer binding site: 32P-labeled runoff transcripts of pSP65-ALA-D.
The test system of data set [3] is Bovine spleen phosphodiesterase.
Data set [4] concerns Worthington venom exonuclease.
Another data set concerns the target T2, Bovine spleen DNase II (Bos taurus, UniProt P56541).
T2 sequence (P56541 20-365): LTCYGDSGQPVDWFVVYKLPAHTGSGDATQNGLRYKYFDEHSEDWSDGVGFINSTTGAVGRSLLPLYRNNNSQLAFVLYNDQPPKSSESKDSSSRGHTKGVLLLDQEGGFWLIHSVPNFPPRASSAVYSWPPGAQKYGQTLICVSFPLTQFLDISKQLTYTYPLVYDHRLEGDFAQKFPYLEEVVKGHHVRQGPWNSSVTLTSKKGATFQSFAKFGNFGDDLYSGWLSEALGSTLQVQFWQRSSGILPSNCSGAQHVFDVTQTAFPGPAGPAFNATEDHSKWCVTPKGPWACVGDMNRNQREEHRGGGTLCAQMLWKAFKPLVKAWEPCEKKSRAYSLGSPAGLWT

A further data set addresses DNase I (pancreas) (Bos taurus, UniProt P00639 P00639:23-282). Description: cleavage_in_vitro; Mg, Ca, 37 C. Particulars: tags: Bethesda Research Laboratories.
In another data set the target is T3, DNase II (spleen) (Bos taurus, UniProt P56541 P56541:20-365).
T3 sequence: T2 sequence (P56541 20-365)
Description: cleavage_in_vitro; pH 4.6, 25 C. The conditions noted are these: tags: Bethesda Research Laboratories.

The target of data set [5] is Snake venom phosphodiesterase (3'->5' exonuclease) (Crotalus adamanteus, UniProt J3SEZ3 J3SEZ3:24-851). Briefly: cleavage_in_vitro; Tris pH 9.0, 37 C. Particulars: tags: Sigma.
Data set [6] concerns the target Venom phosphodiesterase (3'->5' exonuclease) (UniProt J3SEZ3 J3SEZ3:24-851). Briefly: cleavage_in_vitro; Worthington venom exonuclease. The conditions noted are these: tags: Worthington.

Sequence of Snake venom phosphodiesterase (3'->5' exonuclease) (J3SEZ3 24-851, one chain of several): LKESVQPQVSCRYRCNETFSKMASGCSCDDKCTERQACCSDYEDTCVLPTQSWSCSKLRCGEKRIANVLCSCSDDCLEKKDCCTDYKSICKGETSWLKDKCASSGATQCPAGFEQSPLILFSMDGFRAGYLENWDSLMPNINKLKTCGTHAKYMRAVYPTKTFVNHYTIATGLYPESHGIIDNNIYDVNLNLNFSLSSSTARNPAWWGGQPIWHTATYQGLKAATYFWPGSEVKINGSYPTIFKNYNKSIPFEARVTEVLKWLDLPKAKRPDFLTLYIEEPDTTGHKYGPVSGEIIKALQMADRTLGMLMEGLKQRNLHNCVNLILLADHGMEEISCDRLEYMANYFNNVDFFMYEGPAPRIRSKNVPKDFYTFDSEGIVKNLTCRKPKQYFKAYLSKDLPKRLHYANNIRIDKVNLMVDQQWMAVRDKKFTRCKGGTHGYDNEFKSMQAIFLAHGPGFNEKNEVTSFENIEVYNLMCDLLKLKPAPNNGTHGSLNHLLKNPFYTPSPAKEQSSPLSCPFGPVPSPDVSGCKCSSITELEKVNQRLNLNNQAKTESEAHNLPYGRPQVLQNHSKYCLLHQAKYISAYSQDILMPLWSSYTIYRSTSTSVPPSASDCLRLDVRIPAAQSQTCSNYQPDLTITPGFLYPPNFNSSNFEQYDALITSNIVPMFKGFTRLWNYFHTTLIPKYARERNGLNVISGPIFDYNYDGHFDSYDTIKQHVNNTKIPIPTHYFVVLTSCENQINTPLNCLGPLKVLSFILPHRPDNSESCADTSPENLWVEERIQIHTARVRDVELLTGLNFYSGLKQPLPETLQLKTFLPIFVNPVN
Sequence of E. coli RNase H (P0A7Y4 whole entry): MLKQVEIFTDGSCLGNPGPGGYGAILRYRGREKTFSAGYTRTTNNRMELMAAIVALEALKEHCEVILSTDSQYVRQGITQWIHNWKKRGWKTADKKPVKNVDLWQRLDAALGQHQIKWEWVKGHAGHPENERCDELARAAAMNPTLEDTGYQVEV
Sequence of DNase I (pancreas) (P00639 23-282, one chain of several): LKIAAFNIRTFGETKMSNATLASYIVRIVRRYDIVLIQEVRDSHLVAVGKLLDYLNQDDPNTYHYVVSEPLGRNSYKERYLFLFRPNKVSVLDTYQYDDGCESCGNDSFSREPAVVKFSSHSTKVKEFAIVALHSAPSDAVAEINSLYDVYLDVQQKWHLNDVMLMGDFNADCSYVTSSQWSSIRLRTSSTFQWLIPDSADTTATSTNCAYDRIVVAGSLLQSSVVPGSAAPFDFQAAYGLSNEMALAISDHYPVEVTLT
Sequence of Venom phosphodiesterase (3'->5' exonuclease) (J3SEZ3 24-851, one chain of several): as the sequence (J3SEZ3 24-851, one chain of several) above

TGACTTAGCTGCAT [14-Me6a-3]: the activity (relative half-life) in data set [1] (3' methylphosphonate linkage at positions 2,4,6,8,10,12, >>200) is > 200.
On to TGACTTAGCTGCAT [14-A-3], for which the activity (relative half-life) in data set [1] (3' methylphosphonate linkage at A3,A7,A13, >>200) was > 200.
As to “ATGCAGCTAAGTCA [14-P-4] (chemistry not given here) [Oligomer 14-P-4]”, in data set [2], the “Exonuclease Relative Half-Life, Venom (3′->5′-)” value is on record as 1.
For the molecule “TGACTTAGCTGCAT [14-Me^5a-3] (chemistry not given here)”, the “ability to form RNase H substrate, 14-mer binding site” value (from here on “ability … 14-mer binding site”) with E. coli RNase H was “able to form RNase H substrates”. In the data set with B95-8 cells, the “3′-exonucleolytic cleavage in tissue culture” value (from here on “3′-exonucleolytic cleavage”) was “single stepwise cleavage” and the “Tissue Culture Stabilities, Relative Half-Life, +FCS. B95-8” value came out at 30.
Consider CTGGGGCTGCAT [12-Me^5a-1], for which the “ability to form RNase H substrate / cleavage of RNA, 12-mer binding site” value at E. coli RNase H (NcoI runoff transcript) is listed as “permitted cleavage of most of the RNA”.
Take “ATGCAGCTAAGTCA (chemistry not given here) [Oligomer 14-C-4]”: the “observation after spleen exonuclease digestion (electrophoretic mobility of the hybrid)” value (“observation” below) in data set [3] is reported as “apparently shortened”.
As to “TGACTTAGCTGCAT [14-Me^5b-3] (chemistry not given here)”, the “ability … 14-mer binding site” value in the data set with E. coli RNase H is “able to form RNase H substrates”. Besides, in the data set with B95-8 cells, the “3′-exonucleolytic cleavage” value is on record as “absence of cleavage” and the “Tissue Culture Stabilities, Relative Half-Life, +FCS. B95-8” value was found to be 30.
Molecule TGACTTAGCTGCAT [14-P-3] came in with an activity (relative half-life) in data set [1] (half-time about 30 min, citrate pH 6.0, 5 mM EDTA, 37 C) of 1.
For ATGCAGCTAAGTCA [14-G-4], the activity (relative half-life) in data set [1] (3' methylphosphonate linkage at G3,G6,G11, >>200, apparently shortened) is > 200.
With ATGCAGCTAAGTCA [14-C-4], the activity (relative half-life) in [1] (3' methylphosphonate linkage at C4,C7,C13, all modified oligos tested more than 200 times as resistant, apparently shortened) is > 200.
As to “ATGCAGCTAAGTCA [14-T-4] (chemistry not given here) [Oligomer 14-T-4]”, in data set [3], the “observation” value is on record as “apparently shortened”.
Regarding “ATGCAGCTAAGTCA (chemistry not given here) [14-C/T-4]”, the “increase in half-life as compared to 14-C-4” value in data set [4] is on record as “two-fold”.
As to “TGACTTAGCTGCAT [14-A-3] (chemistry not given here) [Oligomer 14-A-3]”, the “ability … 14-mer binding site” value with E. coli RNase H is reported as “formed RNase H substrates”.
For the molecule ATGCAGCTAAGTCA [14-T-4], the activity (relative half-life) in data set [1] (3' methylphosphonate linkage at T2,T8,T12, >>200, apparently shortened) was > 200.
For TGACTTAGCTGCAT [14-C-3], the activity (relative half-life) in [1] (3' methylphosphonate linkage at C4,C9,C12, >>200) was > 200.
For the molecule “TGACTTAGCTGCAT [14-C-3] (chemistry not given here) [Oligomer 14-C-3]”, the “ability … 14-mer binding site” value with E. coli RNase H is recorded as “formed RNase H substrates”.
“TGACTTAGCTGCAT [14-P-3] (chemistry not given here) [Oligomer 14-P-3, reference compound]”: the “Exonuclease Relative Half-Life, Venom (3′->5′-)” value in data set [2] turned out to be 1. The “ability … 14-mer binding site” value in the data set with E. coli RNase H is on record as “formed RNase H substrates”.
On to “TGACTTAGCTGCAT [14-Me^6a-3] (chemistry not given here)”, for which, in the data set with E. coli RNase H, the “ability … 14-mer binding site” value is “did not”. Also, in the data set with B95-8 cells, the “3′-exonucleolytic cleavage” value is “single stepwise cleavage” and the “Tissue Culture Stabilities, Relative Half-Life, +FCS. B95-8” value came to 30.
Take “TGACTTAGCTGCAT (chemistry not given here) [Oligomer 14-P-3]”: the “half-life for digestion by DNase II” value with Bovine spleen DNase II (bovine) amounted to 10 h. Besides, the “Endonuclease Relative Half-Life, DNase II” value with Bovine spleen DNase II (pH 4.6) was determined as 1. Moreover, in the data set with B95-8 cells, the “Tissue Culture Stabilities, Relative Half-Life, +FCS. B95-8” value is 1.
For “ATGCAGCTAAGTCA [14-G-4] (chemistry not given here) [Oligomer 14-G-4]”, in data set [3], the “observation” value is “apparently shortened”.
In the case of ATGCAGCTAAGTCA [14-P-4], the activity (relative half-life) in [1] (half-time about 30 min, citrate pH 6.0, 37 C) is 1.
For the molecule “TGACTTAGCTGCAT [14-Me^6b-3] (chemistry not given here)”, in the data set with B95-8 cells, the “3′-exonucleolytic cleavage” value is listed as “absence of cleavage” and the “Tissue Culture Stabilities, Relative Half-Life, +FCS. B95-8” value was determined as 30.
Consider TGACTTAGCTGCAT (ssDNA, 3' methylphosphonate linkage at positions 2,4,6,8,10,12) [14-Me6a-3], for which the activity was > 600 relative half-life in the data set with DNase I (pancreas) and > 5 relative half-life with DNase II (spleen).
For TGACTTAGCTGCAT (ssDNA, 3' methylphosphonate linkage at positions 2,4,6,10,12) [14-Me5a-3], the activity was 300 relative half-life with DNase I (pancreas) and > 5 relative half-life with DNase II (spleen).
For TGACTTAGCTGCAT (ssDNA, 3' methylphosphonate linkage at positions 2,4,6,9,11,13) [14-Me6b-3] the same measures were > 600 relative half-life and > 5 relative half-life.
For the molecule TGACTTAGCTGCAT (ssDNA, 3' methylphosphonate linkage at C4,C9,C12) [14-C-3], the activity with DNase I (pancreas) was 6 relative half-life; in the data set with DNase II (spleen), 2 relative half-life; in data set [5] it was > 500 relative half-life.
In the case of ATGCAGCTAAGTCA (ssDNA, 3' methylphosphonate linkage at T2,T8,T12) [14-T-4], in [5], the activity was > 500 relative half-life.
Consider TGACTTAGCTGCAT (ssDNA, 3' methylphosphonate linkage at A3,A7,A13) [14-A-3], for which, in the data set with DNase II (spleen), the activity is > 5 relative half-life.
Regarding ATGCAGCTAAGTCA (ssDNA, 3' methylphosphonate linkage at G3,G6,G11) [14-G-4], in data set [5], the activity came to 100 relative half-life.
For the molecule TGACTTAGCTGCAT (ssDNA, 3' methylphosphonate linkage at positions 2,4,6,8,13) [14-Me5b-3], the activity is 12 relative half-life with DNase I (pancreas) and > 5 relative half-life in the data set with DNase II (spleen).
As to ATGCAGCTAAGTCA (ssDNA, 3' methylphosphonate linkage at T12,C13) [14-C/T-4], in [6], the activity is ~2 half-life relative to 14-C-4.
